According to publication PMC12730730, “CAPE Derivatives as Potent Agents for Induction of Osteogenic Differentiation in DPSCs and Biomaterial Development” (Biomedicines, 2025):
“Also recorded” adds a separate entry of the source.

Experiments:
[1] = system: SAOS-2 osteoblastic cell lines; conditions: cited from earlier work
calvarial-derived cells = system: calvarial-derived cells; design: method as in Jun et al. 54; conditions: long-term cultures of calvarial-derived cells; ref Jun et al. 54; cited from earlier work
osteoblastic cells = system: osteoblastic cells; design: method as in PMID 17979115; conditions: cited from earlier work
[2] = Kinetic of chemical hydrolysis in 0.02 M phosphate buffer, HPLC; assay type: physicochemical; conditions: for half-life: phosphate buffer
Method: For compounds 1a and 1d, the chromatographic analyses were performed using a 1260 Infinity II HPLC (Agilent, Santa Clara, CA, USA) consisting of a 1260 Infinity II Quaternary Pump (model G7111A), 1260 Infinity II auto-sampler (model G7129A), a 1260 Infinity II Multicolumn Thermostat (model G7116A), and a 1260 Infinity II Diode Array Detector (model G7115A) equipped with Poroshell 120 EC-C18 (150 × 4.6 mm i.d., particle size 4 µm, Agilent), operating at 20 °C.
Samples were run using a mixture of water and acetonitrile, enriched with trifluoroacetic acid (0.1% v/v) as mobile phase, in a gradient elution mode starting from 90% to 10% of water over 15 min (Table 2) at a flow rate of 0.8 mL/min. Stock solutions (10 mg/mL) were prepared by dissolving the exact amount of each compound in DMSO and acetonitrile (1:1), and then diluted with acetonitrile to reach 250 µg/mL concentration and analyzed by HPLC, setting the UV-detector at 254 nm.
CAPE, 1a and 1d stock solutions (10 mg/mL) were diluted in prewarmed (37 ± 0.5 °C) PBS solution to reach 10^−4 M concentration (50 mL); these conditions were used to initiate the reaction. At established time points, samples of 250 µL were withdrawn, filtered, and analyzed by HPLC. The pseudo-first-order rate constant (kobs) for the compound hydrolysis was calculated from the slops of the linear plots of ln (% residual compound) against time. The samples were analyzed in triplicate.

DPSCs [3] = experiment: Crystal violet cell viability assay of DPSCs in osteogenic medium; assay type: cell-based; conditions: 0.5, 1 and 5 µM; 3, 7, 14, 21 and 28 days; vs Control (diff)
Method: Dental pulp stem cells (DPSCs) were cultured in α-MEM medium (Merck, Darmstadt, Germany), supplemented with 10% fetal bovine serum (FBS) and 1% penicillin/streptomycin (Euroclone S.p.A., Milan, Italy). The cells were purchased from Lonza (Lonza Group Ltd., Basel, Switzerland) and kept at 37 °C and 5% CO2.
Cell viability (relative numbers compared to control cells) was determined by a crystal violet assay. After reaching the growth exponential phase, DPSCs were seeded into 48-well culture plates at a density of 8 × 10^3 cells per well. After 24 h, different concentrations (ranging from 0 to 5 µM) of each compound (1a, 1d, 2a and 2d) were added to DPSCs in an osteogenic medium, whereas cells cultured in the same osteogenic medium without CAPE derivatives served as control. After 3, 7, 14, 21, and 28 days, the medium was removed from each well, a wash with PBS was performed and cell were then fixed with glutaraldehyde (1%), and stained at room temperature with a crystal violet solution (0.02%) (both from Thermo Fisher Scientific, Waltham, MA, USA). After 30 min, the cells were rinsed with tap water, and bound crystal violet was dissolved in 70% ethanol. Then, absorbance was read at 600 nm with a spectrophotometer (Multiskan GO, Thermo Fisher Scientific, Waltham, MA, USA). The optical density readings were used to indicate cell survival relative to untreated cultures.

[4] = Thermal stability of the solid compounds, 1H-NMR before and after heating; assay type: physicochemical; conditions: 20 min at 100 °C, water bath, solid compound
Method: To ensure the suitability of compounds 1a and 1d for adsorption onto biomaterials, their thermal stability was confirmed. Initially, ^1H-NMR spectra were acquired for the compounds. Subsequently, they were subjected to heating for 20 min at 100 °C by immersing glass tubes containing the solid compounds in a water bath. Following the heating process, their ^1H-NMR spectra were reacquired and compared with the initial spectra to assess any alterations.

[5] = design: method as in PMID 39054610; conditions: 30 min at 50 °C; cited from earlier work
[6] = system: Alkaline phosphatase (ALP) activity in DPSCs; experiment: Alkaline phosphatase (ALP) activity in supernatants of differentiating DPSCs; assay type: cell-based; conditions: 0.5 µM; 3, 7, 14, 21 and 28 days; vs control (diff)
Method: (§1) DPSCs were seeded at a density of 3.5 × 10^4 in 12-well plates in the presence of differentiation medium, which consists of complete α-MEM supplemented with 10 nM dexamethasone, 10 mM β-glycerophosphate and 0.2 mM ascorbic acid phosphate (all purchased from Sigma-Aldrich, St. Louis, MO, USA). At the established experimental times (3, 7, 14, 21 and 28 days), cells and/or supernatants were collected for further analyses.
A colorimetric Alkaline Phosphate Assay Kit (Abcam, Cambridge, UK) was used following manufacturer’s instructions. Briefly, 50 µL of 5 mM p-nitrophenyl phosphate (pNPP) was added to 80 µL of each supernatant and then incubated for 1 h at room temperature in the dark. After the addition of 20 µL of stopping solution, the absorbance was read at 405 nm wavelength through a microplate reader (Multiskan GO, Thermo Fisher Scientific). The ALP activity (mU/mL/min) was calculated in accordance with the manufacturer’s protocol.

BMP2 = experiment: Real-time RT-PCR, BMP2 gene expression in DPSCs; assay type: cell-based; conditions: 0.5 µM, vs Control (diff)
Method: (§2) After 7, 14, and 21 days of treatment, DPSCs were collected and RNA was extracted by PureLink® RNA Mini Kit (Life Technologies, Carlsbad, CA, USA). An amount of 300 µL of lysis buffer supplied with 1% of 2-mercaptoethanol and then 300 µL of 70% v/v ethanol were added to each cell pellet, and samples were transferred into the Spin Cartridge for RNA extraction and purification. After washing with Wash Buffer supplied by the kit, samples were incubated for 15 min with 80 µL of DNase mixture (On-column PureLink® DNase Treatment, Thermo Fisher Scientific) to remove contaminating DNA. RNA extracted from each sample was eluted in 30 µL of Nuclease-Free Water. RNA concentration (ng/µL) was determined through Qubit® RNA BR Assay Kits (Thermo Fisher Scientifc).
(§3) A total of 1 µg of RNA was reverse-transcribed by high-capacity cDNA Reverse Transcription Kit (Life Technologies). Samples were incubated in a thermal cycler at 25 °C for 10 min, 37 °C for 2 h, and 85 °C for 5 min.
(§4) For all the examined mRNAs, gene expression was determined by quantitative PCR using PowerUpTM SYBRTM Green Master Mix (2×) (Thermo Fisher Scientific). Each amplification reaction was performed in a MicroAmp® Optical 96-well Reaction Plate (Life Technologies, Carlsbad, CA, USA) in a reaction volume of 20 µL made up of 10 µL of SYBR Green, 1 µM of each primer (stock solution 100 µM), 10 ng of cDNA and Nuclease-Free Water.
(§5) The run consisted of 50 °C for 2 min, 95 °C for 2 min, 40 cycles of amplification at 95 °C for 15 s and 60 °C for 1 min in QuantStudio 3 (Thermo Fisher Scientific). QuantStudio™ Design & Analysis Software v1.5.1 (Thermo Fisher Scientific) was used to elaborate gene expression data. The authenticity of the PCR products was verified by melt curve analysis. Each gene expression value was normalized to the expression level of 18S. The fold changes of the investigated genes were expressed in relation to the level of 18S at different time points. The relative abundance of mRNA (relative quantification) was quantified using the comparative ^2−∆∆Ct method.

Collagen type I = experiment: ELISA of collagen type I release in DPSC supernatants; assay type: cell-based, human; conditions: 0.5 µM; 7, 14 and 21 days; normalized on crystal violet values
Method: as §1
The release of collagen type I in cell supernatants was measured by a Human Collagen Type 1 ELISA kit (Cosmo Bio Co., Ltd., Tokyo, Japan; cat. no. ACE-EC1-E105-EX). The absorbance was measured at 450 nm spectrophotometrically (Multiskan GO, Thermo Fisher Scientific). The concentration of collagen type I (µg/mL) was calculated using a standard curve generated with specific standards provided by the manufacturers and normalized with the crystal violet values.

Osterix (SP7) = experiment: Real-time RT-PCR, Osterix (SP7) gene expression in DPSCs; assay type: cell-based; conditions: 0.5 µM, vs control sample
Method: as §2, §3, §4, §5

DPSCs [7] = experiment: Alizarin Red S staining, extracellular mineralized matrix deposition; assay type: cell-based; conditions: for Extracellular mineralized matrix deposition compared to non-treated cells (Alizarin Red): 28 days in differentiation medium, 0.5, 1 and 5 µM; for Concentrations at which matrix deposition / mineralization is enhanced: 28 days, tested 0.5, 1 and 5 µM
Method: as §1
Alizarin red staining was performed after 28 days, by washing twice with PBS with Ca^2+/Mg^2+ each well, and fixing the cell monolayer of DPSCs in paraformaldehyde 4% for 15 min at room temperature. After washing twice with deionized water, 40 mM Alizarin Red S solution (Sigma-Aldrich) was added to each well and left at room temperature for 20 min on a shaker, followed by several rinses with deionized water in order to eliminate dye excess. For the spectrophotometric evaluation of calcium level deposits, 800 µL/well of 10% acetic acid was added to each well and then incubated for 30 min in agitation. Wells were then scraped and the sample containing calcium deposits was collected and vortexed. After the addition of hot mineral oil (Sigma-Aldrich), the samples were incubated on ice for 5 min and then centrifuged at 20,000× g for 15 min. After the removal of the supernatant, 10% ammonium hydroxide was added, and the optical density of 150 µL aliquots of this solution was measured at 405 nm through a microplate reader (Multiskan GO, Thermo Fisher Scientific).

| Compound | Kobs ([2]; pH 4.5, 37 °C) | t1/2 ([2]; pH 4.5, 37 °C) | Kobs ([2]; pH 7.4) | half-life ([2]; pH 4.5, pH 4.5, 37 °C) [h] | half-life ([2]; pH 7.4, pH 7.4) [h] | Thermal stability (identical 1H NMR spectra before and after heat) [4] | Cell viability / toxicity towards DPSCs (DPSCs [3]) | Thermal stability (consistent 1H NMR spectra before and after heat) [5] | ALP activity compared to non-treated cells [6] | BMP2 relative gene expression (BMP2; 21 days) | Collagen type I release with respect to the control sample (Collagen type I) | Osx (SP7) relative gene expression (Osterix (SP7); 21 days) [fold] | Extracellular mineralized matrix deposition compared to non-treated cells (Alizarin Red) (DPSCs [7]) | Concentrations at which matrix deposition / mineralization is enhanced (DPSCs [7]) | also measured |
| --- | --- | --- | --- | --- | --- | --- | --- | --- | --- | --- | --- | --- | --- | --- | --- |
| O=C(/C=C/c1ccc(O)c(O)c1)OCCc1ccccc1 [CAPE, caffeic acid phenethyl ester] | 0.006 (±0.0009) h^−1 | 117.5 (±2.10) h | 0.018 (±0.004) h^−1 | 117 | 38.5 | – | – | – | – | – | – | – | – | – | Cytotoxicity at similar concentrations (0.5-5 µM range) ([1]; SAOS-2 osteoblastic cell lines): does not exhibit cytotoxicity; Concentrations that reduce cell viability [1]: above 10 µM; Concentrations at which toxicity is reported (calvarial-derived cells): above 17.6 µM; ECM mineralization (osteoblastic cells; CAPE at 10 μM): reduction in ECM mineralization; ECM mineralization compared to the control group (osteoblastic cells; CAPE at concentrations up to 100 nM): greater mineralization |
| O=C(/C=C/c1ccccc1)Nc1cccc2cccnc12 [compound 2a] | – | – | – | – | – | – | no toxicity | – | – | – | – | – | no significant changes | – | – |
| O=C(/C=C/c1ccc(O)c(O)c1)Nc1cccc2cccnc12 [compound 2d] | – | – | – | – | – | – | no toxicity | – | significantly higher than non-treated cells at all time points | higher BMP2 expression only after 21 days | – | – | more effective in enhancing matrix deposition | only enhance mineralization at the lowest concentration | – |

The next lines start with results.

| Kobs ([2]; pH 4.5, 37 °C) | t1/2 ([2]; pH 4.5, 37 °C) | Kobs ([2]; pH 7.4) | half-life ([2]; pH 4.5, pH 4.5, 37 °C) [h] | half-life ([2]; pH 7.4, pH 7.4) [h] | Thermal stability (identical 1H NMR spectra before and after heat) [4] | Compound | Cell viability / toxicity towards DPSCs (DPSCs [3]) | Thermal stability (consistent 1H NMR spectra before and after heat) [5] | ALP activity compared to non-treated cells [6] | BMP2 relative gene expression (BMP2; 21 days) | Collagen type I release with respect to the control sample (Collagen type I) | Osx (SP7) relative gene expression (Osterix (SP7); 21 days) [fold] | Extracellular mineralized matrix deposition compared to non-treated cells (Alizarin Red) (DPSCs [7]) | Concentrations at which matrix deposition / mineralization is enhanced (DPSCs [7]) | also measured |
| --- | --- | --- | --- | --- | --- | --- | --- | --- | --- | --- | --- | --- | --- | --- | --- |
| 0.009 (±0.0008) h^−1 | – | – | 80.6 | – | stable | O=C(/C=C/c1ccccc1)Oc1cccc2cccnc12 [compound 1a] | no toxicity | stable | significantly higher than non-treated cells at all time points | 2.2 fold | higher quantity of Collagen type I | 2.26 | more effective in enhancing matrix deposition | across all tested concentrations | BMP2 relative gene expression (BMP2; 14 days): 1.2 fold; t1/2 ([2]; pH 7.4): no degradation; also recorded: stable; Osx (SP7) relative gene expression (Osterix (SP7); 14 days): 4.8 fold |
| – | no degradation; also recorded: stable | 0.033 (±0.002) h^−1 | – | 21.2 | stable | O=C(/C=C/c1ccc(O)c(O)c1)Oc1cccc2cccnc12 [compound 1d] | no toxicity | stable | significantly higher than non-treated cells at all time points | – | higher quantity of Collagen type I | 2.19 | more effective in enhancing matrix deposition | only enhance mineralization at the lowest concentration | BMP2 relative gene expression (BMP2; 7 days): significantly increased BMP2 expression |
